The text below walks through data of ChEMBL document CHEMBL1201862, “PubChem BioAssay data set” (2004).

As a reminder, the IC50 is the concentration that inhibits the measured activity by half. Broadly, the AC50 is the concentration giving half of the maximal activity seen. As a reminder, the EC50 is the concentration that produces a half-maximal response. By CC50 is commonly meant the concentration giving 50% cytotoxicity.

Active and inactive are the calls of the source.

Test [1] concerns the target T1, High affinity choline transporter 1 (Homo sapiens, UniProt Q9GZV3).
T1 sequence (Q9GZV3 whole entry): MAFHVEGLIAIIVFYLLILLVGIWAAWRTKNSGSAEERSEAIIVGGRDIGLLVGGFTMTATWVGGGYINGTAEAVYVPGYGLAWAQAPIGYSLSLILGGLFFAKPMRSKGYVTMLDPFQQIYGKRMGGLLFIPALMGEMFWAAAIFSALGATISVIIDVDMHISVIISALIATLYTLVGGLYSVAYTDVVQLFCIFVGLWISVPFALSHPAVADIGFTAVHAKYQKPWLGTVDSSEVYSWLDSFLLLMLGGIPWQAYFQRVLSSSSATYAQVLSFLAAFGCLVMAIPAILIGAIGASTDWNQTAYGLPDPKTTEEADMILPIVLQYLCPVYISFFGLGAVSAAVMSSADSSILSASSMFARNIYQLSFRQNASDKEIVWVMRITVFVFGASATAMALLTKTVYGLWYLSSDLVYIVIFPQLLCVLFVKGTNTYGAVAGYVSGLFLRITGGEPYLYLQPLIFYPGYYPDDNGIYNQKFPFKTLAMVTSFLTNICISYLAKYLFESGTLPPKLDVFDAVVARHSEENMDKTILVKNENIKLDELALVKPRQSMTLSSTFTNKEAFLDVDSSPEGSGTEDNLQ
As to the kind of experiment: human choline transporter blockers, potency – cell-based, 5-point CRC, membrane potential dye, dose response (AID 504840). Type of test: functional.

Test [2] addresses Glucose-6-phosphate 1-dehydrogenase (Homo sapiens, UniProt P11413). Description: inhibition of Homo sapiens G6PD, dose series – biochemical, fluorescence, selectivity assay for P. falciparum G6PD inhibitor project, dose response (AID 504792). Type of test: functional.
Test [3] is described as follows: blockers of HIV-1 ZM109 envelope-driven cell-cell fusion – HeLa effector, CEM target cells, luciferase, cherry-pick, dose response (AID 652058).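 Further: luciferase signal from HIV-1 Env mediated cell-cell fusion of effector and target cells.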 It is filed as functional, cell-based.
Test [4] in a line: off-target signal loss in HeLa-CEM21 co-culture – HeLa F-luc CTL cells, cherry-picked, counter-screen for HIV-1 Env fusion inhibitor project, dose response (AID 652040).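 Further: potency for signal decrease marking cytotoxic or nonspecific inhibition.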 Type of test: functional, cell-based. On the technique in general: A counterscreen serves to expose hits that act by an unwanted route or on another target.
Test [5] is described as follows: blockers of HIV-1 envelope-mediated cell-cell fusion – cherry-pick, dose response (AID 652057). Type of test: functional, cell-based.
Test [6] can be described thus: viability loss in CEM21 cells – cell-based, CellTiter-Glo luminescence, cherry-picked, cytotoxicity control for viral fusion inhibitor project, dose response (AID 652042).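 Further: potency for signal decrease meaning cytotoxicity.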 It is filed as functional. On the technique in general: Cellular ATP, detected with luciferase, serves as a proxy for viable cell number.
The nature of test [7]: HIV-1 AD8 envelope cell-cell fusion blockers – cherry-pick, dose response (AID 652062).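 Further: luciferase signal from cell-cell fusion driven by HIV-1 clade B AD8 Env; potency is for inhibitors of fusion seen as a drop in luminescence.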 Type of test: functional, cell-based.
Test [8] deals with T2, Protein RecA (Mycobacterium tuberculosis, UniProt P9WHJ3).
T2 sequence (P9WHJ3 whole entry): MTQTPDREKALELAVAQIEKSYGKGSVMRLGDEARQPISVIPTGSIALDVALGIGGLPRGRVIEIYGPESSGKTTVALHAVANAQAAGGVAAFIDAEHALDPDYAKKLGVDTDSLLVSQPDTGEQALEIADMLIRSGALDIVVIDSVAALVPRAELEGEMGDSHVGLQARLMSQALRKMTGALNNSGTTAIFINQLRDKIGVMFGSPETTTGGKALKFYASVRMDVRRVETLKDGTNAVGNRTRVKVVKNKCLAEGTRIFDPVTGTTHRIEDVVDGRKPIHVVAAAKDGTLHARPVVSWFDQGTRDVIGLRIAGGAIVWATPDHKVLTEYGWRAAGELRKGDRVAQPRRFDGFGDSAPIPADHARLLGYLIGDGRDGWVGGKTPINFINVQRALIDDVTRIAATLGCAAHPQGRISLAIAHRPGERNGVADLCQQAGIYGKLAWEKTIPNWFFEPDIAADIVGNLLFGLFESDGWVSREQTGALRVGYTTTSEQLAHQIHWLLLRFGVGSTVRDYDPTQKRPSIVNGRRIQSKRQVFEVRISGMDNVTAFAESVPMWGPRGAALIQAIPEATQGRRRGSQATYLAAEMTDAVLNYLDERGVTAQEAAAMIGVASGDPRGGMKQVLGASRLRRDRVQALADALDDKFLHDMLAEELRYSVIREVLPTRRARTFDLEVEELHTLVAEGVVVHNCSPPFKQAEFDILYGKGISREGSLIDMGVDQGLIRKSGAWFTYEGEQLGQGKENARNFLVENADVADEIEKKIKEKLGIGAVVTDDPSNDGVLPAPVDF
Description: Fluorescence Cell-Free Homogeneous Dose Retest to Identify Inhibitors of RecA-Intein Splicing Activity. [Related pubchem assays (depositor defined):AID2097, AID2223, AID489010, AID492950]. Type of test: functional.

Test [9] addresses T3, Replicative DNA helicase DnaB (Mycobacterium tuberculosis, UniProt P9WMR3).
T3 sequence (P9WMR3 whole entry): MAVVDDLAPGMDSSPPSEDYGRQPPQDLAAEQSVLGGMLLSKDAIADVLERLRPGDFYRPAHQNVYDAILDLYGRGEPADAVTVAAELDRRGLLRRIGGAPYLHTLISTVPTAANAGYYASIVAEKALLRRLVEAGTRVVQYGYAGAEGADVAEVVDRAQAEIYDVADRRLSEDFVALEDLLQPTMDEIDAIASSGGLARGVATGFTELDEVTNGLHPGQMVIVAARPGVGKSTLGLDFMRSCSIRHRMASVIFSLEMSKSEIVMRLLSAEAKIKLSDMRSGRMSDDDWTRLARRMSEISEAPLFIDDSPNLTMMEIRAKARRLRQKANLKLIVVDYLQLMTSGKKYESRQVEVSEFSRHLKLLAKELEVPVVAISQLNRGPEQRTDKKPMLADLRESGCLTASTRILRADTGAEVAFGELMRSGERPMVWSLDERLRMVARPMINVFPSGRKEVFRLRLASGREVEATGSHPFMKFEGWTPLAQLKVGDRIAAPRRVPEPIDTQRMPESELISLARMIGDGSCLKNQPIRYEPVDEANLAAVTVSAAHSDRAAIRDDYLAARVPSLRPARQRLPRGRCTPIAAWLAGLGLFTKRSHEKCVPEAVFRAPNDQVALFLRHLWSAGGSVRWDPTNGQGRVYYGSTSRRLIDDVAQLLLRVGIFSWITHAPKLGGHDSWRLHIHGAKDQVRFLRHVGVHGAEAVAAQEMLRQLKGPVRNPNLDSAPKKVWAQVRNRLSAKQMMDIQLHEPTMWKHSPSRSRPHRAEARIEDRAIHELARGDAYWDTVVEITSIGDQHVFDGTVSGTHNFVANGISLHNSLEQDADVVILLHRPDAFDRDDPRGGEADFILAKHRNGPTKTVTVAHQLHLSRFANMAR
Description: DnaB intein splicing inhibitors, dose response, biochemical, cell-free fluorescence (AID 449749). It is filed as functional.

Test [10] addresses T4, Apoptotic protease-activating factor 1 (Homo sapiens, UniProt O14727).
T4 sequence (O14727 whole entry): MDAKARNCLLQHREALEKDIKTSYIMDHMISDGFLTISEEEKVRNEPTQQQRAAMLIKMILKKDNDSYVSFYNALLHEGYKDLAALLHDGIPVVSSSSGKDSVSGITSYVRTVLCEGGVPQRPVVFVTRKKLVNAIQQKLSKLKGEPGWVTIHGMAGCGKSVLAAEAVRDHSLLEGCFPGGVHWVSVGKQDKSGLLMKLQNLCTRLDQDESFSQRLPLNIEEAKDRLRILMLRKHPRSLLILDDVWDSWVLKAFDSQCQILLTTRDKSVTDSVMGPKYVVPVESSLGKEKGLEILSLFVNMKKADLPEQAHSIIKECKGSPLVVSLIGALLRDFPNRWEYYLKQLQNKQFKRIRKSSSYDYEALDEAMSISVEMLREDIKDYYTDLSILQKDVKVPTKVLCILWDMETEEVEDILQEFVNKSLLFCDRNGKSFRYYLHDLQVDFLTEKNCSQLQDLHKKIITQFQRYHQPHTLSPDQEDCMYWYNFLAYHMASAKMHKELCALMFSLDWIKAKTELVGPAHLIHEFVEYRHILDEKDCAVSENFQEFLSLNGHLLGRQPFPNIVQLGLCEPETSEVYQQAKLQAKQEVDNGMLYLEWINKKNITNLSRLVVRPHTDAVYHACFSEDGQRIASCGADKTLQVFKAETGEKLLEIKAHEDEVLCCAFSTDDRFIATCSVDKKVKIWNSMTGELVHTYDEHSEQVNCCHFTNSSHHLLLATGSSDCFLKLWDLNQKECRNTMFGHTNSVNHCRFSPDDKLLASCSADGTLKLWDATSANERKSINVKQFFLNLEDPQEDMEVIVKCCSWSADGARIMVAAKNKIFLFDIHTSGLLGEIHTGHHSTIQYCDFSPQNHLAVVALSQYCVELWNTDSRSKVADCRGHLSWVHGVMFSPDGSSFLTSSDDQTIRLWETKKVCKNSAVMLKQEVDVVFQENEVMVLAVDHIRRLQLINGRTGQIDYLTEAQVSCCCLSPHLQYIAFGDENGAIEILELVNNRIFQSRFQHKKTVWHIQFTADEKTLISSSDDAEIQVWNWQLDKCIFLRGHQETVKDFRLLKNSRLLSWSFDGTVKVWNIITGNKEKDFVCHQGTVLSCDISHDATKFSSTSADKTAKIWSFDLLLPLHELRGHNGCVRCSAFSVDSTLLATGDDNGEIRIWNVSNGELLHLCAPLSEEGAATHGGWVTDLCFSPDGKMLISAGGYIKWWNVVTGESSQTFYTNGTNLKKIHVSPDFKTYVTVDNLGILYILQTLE
It is filed as functional.

In test [11] the target is Genome polyprotein (dengue virus type 2, UniProt P29990). As to the kind of experiment: flavivirus cap methylation enzyme inhibition – biochemical, confirmation dose response, primary screen (AID 588689). Type of test: functional.
The target of test [12] is T5, Fatty acid synthase (Homo sapiens, UniProt P49327). As to the kind of experiment: inhibition of human FAS-TE enzyme activity – biochemical, kinetic fluorescence intensity, dose response (AID 624326).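 Further: rate of fluorescence rise from hydrolysis of a fluorogenic O-methyl fluorescein ester substrate.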 It is filed as functional.
In test [13] the target is T5, Fatty acid synthase. Description: inhibition of human FAS-TE enzyme activity – biochemical, endpoint fluorescence intensity, uHTS hits, dose response (AID 624327).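 Further: fluorescence from hydrolysis of an O-methyl fluorescein acyl ester substrate by the enzyme.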 It is filed as functional.
Test [14] deals with Vero. Description: cells. It is filed as functional. The following applies: Chlorocebus sabaeus.

T5 sequence (P49327 whole entry): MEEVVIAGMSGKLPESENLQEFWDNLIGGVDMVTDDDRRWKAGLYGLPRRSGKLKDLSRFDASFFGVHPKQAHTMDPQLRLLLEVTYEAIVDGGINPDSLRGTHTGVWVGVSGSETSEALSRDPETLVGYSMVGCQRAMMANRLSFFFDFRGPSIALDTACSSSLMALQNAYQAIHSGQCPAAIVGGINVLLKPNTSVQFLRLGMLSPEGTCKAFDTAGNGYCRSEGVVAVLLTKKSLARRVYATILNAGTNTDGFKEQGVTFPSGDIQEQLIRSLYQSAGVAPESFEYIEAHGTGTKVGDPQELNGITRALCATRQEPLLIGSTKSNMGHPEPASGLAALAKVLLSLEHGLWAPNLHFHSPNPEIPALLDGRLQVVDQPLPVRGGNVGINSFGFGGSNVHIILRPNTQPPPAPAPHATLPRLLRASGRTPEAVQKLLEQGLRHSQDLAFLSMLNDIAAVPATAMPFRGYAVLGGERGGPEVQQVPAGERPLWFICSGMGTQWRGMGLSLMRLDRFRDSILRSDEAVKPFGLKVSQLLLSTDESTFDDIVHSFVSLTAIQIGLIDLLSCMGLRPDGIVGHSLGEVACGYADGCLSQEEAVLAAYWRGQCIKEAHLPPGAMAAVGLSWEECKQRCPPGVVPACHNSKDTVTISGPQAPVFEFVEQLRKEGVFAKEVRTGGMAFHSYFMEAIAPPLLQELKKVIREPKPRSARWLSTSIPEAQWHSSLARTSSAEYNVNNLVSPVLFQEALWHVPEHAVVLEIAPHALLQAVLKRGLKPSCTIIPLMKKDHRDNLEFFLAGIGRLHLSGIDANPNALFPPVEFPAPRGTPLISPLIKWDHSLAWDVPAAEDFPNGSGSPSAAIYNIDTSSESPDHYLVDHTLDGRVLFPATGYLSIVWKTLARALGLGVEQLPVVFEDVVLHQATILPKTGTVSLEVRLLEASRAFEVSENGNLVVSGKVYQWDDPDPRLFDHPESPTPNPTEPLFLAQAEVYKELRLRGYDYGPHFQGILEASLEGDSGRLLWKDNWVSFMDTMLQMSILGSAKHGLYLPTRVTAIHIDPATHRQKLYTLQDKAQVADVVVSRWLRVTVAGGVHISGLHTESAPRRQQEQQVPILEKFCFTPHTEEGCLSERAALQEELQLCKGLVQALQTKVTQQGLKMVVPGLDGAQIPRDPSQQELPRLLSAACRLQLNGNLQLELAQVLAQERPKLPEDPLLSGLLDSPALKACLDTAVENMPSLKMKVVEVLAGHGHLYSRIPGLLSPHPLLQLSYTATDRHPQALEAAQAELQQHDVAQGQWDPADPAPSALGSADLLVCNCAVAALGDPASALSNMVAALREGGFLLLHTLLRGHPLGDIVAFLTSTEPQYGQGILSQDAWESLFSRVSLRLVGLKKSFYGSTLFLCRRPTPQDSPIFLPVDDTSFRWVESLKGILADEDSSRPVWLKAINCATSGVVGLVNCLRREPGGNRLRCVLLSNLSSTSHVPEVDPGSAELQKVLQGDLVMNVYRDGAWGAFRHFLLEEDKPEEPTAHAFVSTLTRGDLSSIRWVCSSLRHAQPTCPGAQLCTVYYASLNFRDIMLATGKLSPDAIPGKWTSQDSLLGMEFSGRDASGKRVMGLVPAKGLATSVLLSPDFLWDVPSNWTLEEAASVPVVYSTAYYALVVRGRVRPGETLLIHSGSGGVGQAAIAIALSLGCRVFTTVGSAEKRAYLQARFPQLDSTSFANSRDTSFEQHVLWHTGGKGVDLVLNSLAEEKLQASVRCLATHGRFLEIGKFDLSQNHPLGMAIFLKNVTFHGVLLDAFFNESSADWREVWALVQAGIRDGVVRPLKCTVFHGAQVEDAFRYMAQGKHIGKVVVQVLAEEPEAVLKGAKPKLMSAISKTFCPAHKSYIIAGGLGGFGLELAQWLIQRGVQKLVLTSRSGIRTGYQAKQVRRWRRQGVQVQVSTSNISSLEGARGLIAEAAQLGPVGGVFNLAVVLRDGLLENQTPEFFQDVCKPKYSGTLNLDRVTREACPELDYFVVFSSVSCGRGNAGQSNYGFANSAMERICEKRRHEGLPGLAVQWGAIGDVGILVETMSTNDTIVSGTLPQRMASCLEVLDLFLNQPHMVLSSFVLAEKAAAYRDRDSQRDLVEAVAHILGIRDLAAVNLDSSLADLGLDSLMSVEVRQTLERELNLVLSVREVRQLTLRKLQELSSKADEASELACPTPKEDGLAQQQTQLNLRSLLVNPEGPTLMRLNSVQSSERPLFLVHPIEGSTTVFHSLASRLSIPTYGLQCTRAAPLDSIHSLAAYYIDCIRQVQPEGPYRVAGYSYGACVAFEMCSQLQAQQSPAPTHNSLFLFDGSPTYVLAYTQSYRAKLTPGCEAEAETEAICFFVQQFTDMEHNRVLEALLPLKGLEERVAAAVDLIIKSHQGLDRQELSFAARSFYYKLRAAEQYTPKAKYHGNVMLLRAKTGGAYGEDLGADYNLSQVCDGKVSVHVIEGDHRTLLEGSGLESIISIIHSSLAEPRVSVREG
Chain of Glucose-6-phosphate 1-dehydrogenase (P11413 whole entry, the tested form may be a part): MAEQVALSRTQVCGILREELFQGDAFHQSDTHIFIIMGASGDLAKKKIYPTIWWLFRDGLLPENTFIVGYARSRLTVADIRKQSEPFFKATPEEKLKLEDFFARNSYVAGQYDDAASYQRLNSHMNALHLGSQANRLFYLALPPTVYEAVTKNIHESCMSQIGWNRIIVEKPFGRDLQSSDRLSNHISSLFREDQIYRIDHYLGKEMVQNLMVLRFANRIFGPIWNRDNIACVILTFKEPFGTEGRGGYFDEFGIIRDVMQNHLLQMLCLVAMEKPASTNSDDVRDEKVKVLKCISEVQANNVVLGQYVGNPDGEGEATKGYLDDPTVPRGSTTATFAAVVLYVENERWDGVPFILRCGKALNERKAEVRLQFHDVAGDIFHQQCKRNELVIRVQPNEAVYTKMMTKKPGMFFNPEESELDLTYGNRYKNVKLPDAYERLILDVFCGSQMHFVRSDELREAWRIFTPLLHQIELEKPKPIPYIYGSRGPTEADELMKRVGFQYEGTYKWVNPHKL
Chain of Genome polyprotein (P29990 2492-3391 limits assumed): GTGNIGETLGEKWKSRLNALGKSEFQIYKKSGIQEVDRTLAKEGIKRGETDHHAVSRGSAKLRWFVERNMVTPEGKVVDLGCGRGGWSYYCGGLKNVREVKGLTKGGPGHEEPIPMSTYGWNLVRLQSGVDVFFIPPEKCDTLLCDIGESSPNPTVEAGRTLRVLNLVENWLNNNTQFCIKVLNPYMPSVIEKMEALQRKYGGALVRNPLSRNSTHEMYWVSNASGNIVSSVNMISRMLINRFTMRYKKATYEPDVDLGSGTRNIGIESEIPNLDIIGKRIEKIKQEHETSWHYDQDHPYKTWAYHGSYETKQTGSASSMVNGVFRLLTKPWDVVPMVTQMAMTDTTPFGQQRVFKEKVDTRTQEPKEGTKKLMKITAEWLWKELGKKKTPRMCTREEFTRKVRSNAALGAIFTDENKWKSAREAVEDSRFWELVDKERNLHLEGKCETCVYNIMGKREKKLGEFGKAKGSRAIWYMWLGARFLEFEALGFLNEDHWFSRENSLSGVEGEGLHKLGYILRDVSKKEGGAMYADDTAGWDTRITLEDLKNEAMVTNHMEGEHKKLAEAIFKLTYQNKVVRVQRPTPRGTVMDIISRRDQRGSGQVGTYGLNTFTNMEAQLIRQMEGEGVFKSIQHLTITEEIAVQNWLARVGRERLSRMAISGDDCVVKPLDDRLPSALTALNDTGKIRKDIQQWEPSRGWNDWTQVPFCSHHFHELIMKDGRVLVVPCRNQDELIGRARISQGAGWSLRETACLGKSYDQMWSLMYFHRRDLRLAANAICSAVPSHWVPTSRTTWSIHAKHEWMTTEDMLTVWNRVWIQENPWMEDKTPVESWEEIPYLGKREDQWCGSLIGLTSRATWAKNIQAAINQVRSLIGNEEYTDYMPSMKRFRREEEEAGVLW

On to `CCCCc1ccc(NC(S)=NCC2CCCO2)cc1` (centres undefined), for which the half-inhibitory concentration (IC50) in test [1] was 15.8 µM (active). For the compound `Fc1ccc(-c2nc3c(-c4ccccc4)cnn3cc2CCN2CCOCC2)cc1`, the half-inhibitory concentration (IC50) in [1] is 13.2 µM (active). As to `Sc1nc2c[nH]c(S)nc-2n1`, the IC50 in [2] is > 80 µM (inactive). As to `COc1ccc(C(O)(CCC(C)C)C(CN2CCOCC2)c2ccccc2)cc1` (centres undefined), the half-maximal activity concentration (AC50) in test [3] was 23.3 µM (active); in [4] it was 23.8 µM (active); in test [5], 5.79 µM (active); in test [6], 51.9 µM (active); in test [7], 40.3 µM (active). `CC(=O)N(C1=C(N)C(=O)c2ccccc2C1=O)c1ccccc1`: the EC50 in test [8] is 2.18 µM (active). Further, the AC50 in [9] is 3.46 µM (active). Further, the half-inhibitory concentration (IC50) in [10] was 10.4 µM (active). Consider `O=C(O)C(Cc1ccccc1)N1C(=O)C=CC1=O` (centres undefined), for which the IC50 in test [2] was > 80 µM (inactive); in test [11] it was > 100 µM (active). Regarding `C#CCN(C[C@H]1[C@H](OC(=O)NC2CCCC2)[C@H](OC(=O)NC2CCCC2)C[C@H]2C(=O)N(c3ccccc3)C(=O)[C@@H]12)S(=O)(=O)c1ccc(C)cc1`, the IC50 in test [12] was 23 µM (inactive); in test [13], 47.5 µM (inactive). On to `CCCCCCN1C[C@@H](n2cc(COC(=O)c3ccccc3)nn2)[C@H](O)C[C@@H]1c1ccc(C)cc1`, for which the CC50 in test [14] was > 25 µM (active). As to `O=C(/C=C/c1cc([N+](=O)[O-])ccc1OC(F)F)Nc1cccc2ccccc12`, the IC50 was 61.9 µM (inactive) in test [12] and 24.6 µM (inactive) in test [13]. As to `C[C@H](CO)N1C[C@H](C)[C@@H](CN(C)C(=O)NC2CCCCC2)Oc2c(NC(=O)Nc3ccccc3)cccc2C1=O`, the IC50 in [12] is 3.04 µM (active); in test [13], 4.16 µM (active). For `CCN1CCN(S(=O)(=O)c2ccc(Cl)c(C(=O)N(C)Cc3ccc(C(C)(C)C)cc3)c2)CC1` the same measures were 17.3 µM (active) and 13.5 µM (active). In the case of `Cc1cc(C)c(S(=O)(=O)/N=C2\C=C(NS(=O)(=O)c3ccccc3)C(=O)c3ccccc32)c(C)c1`, in test [10], the IC50 is 31.1 µM (active). Take `Cc1ccc(S(=O)(=O)N2CCC(=O)N(CCOC(=O)Nc3cccc(Cl)c3)CC2)cc1`: the concentration at half-maximal activity (AC50) in [3] is 4.6 µM (active); in test [4], 4.11 µM (active); in test [5], 3.12 µM (active); in test [7] it was 7.72 µM (active). For the compound `CCN(Cc1ccccc1)S(=O)(=O)c1ccc(C(=O)N(CCCN(C)C)c2nc3ccc(F)cc3s2)cc1`, the 50% cytotoxic concentration (CC50) in test [14] is > 25 µM (active).

In the case of `CCOC(=O)c1c(-c2ccc(C)cc2C)csc1NC(=O)CSc1nnnn1C`, the CC50 in [14] is 23.2 µM (active).
